Test results taken from patent US11472769B2, “SSAO inhibitors and use thereof” (Eccogene (Shanghai) Co., Ltd., priority 2019, dated 2022).
pIC50: −log10 of the molar value.

Biological target: recombinant hSSAO (Homo sapiens (Human), UniProt Q16853)
Test: SSAO Activity Assay (MAO-Glo assay kit)
Assay type: biochemical
Details: 40 μM substrate, 30 mins pre-incubation
Experimental: The biological activities of the compounds of the present application can be assessed with methods and assays known in the art. For example, the potency of the compounds of the present application can be evaluated with an SSAO Activity Assay. Briefly, compounds of the present application can be applied to recombinant hSSAO, hMAO-A, and hMAO-B isoforms and the amine oxidase activity of the enzymes are measured after the addition and subsequent oxidation of the luminogenic substrate (e.g., with the MAO-Glo assay kit from Promega). The IC50 can be calculated, for example, by fitting the dose response curve using a 4-parameter non-linear regression routine.
Amine oxidase activity of recombinant hSSAO, hMAO-A, and hMAO-B isoforms are measured using the MAO-Glo assay kit (Promega, V1402). Ten nL test compounds (with DMSO as vehicle, 0.1% v/v for hSSAO, hMAO-A and hMAO-B) were added into assay plates by Echo, and pre-incubated with 5 μL of enzyme for 30 mins at room temperature before the addition of 5 μL of luminogenic substrate. The substrate concentration is 40 μM for human recombinant SSAO, 40 μM for human recombinant MAO-A, and 4 μM for human recombinant MAO-B. The hSSAO and hMAO-A assays were conducted in the MAO-A reaction buffer in the kit, and the MAO-B assay was conducted in the MAO-B reaction buffer. Oxidation of the substrate was conducted for 1 hr, before the addition of detecting reagent according the manufacture's protocol. The IC50 value of the tested compounds was calculated by fitting the dose response curve using a 4-parameter non-linear regression routine.

Sequence of recombinant hSSAO (Q16853 whole entry): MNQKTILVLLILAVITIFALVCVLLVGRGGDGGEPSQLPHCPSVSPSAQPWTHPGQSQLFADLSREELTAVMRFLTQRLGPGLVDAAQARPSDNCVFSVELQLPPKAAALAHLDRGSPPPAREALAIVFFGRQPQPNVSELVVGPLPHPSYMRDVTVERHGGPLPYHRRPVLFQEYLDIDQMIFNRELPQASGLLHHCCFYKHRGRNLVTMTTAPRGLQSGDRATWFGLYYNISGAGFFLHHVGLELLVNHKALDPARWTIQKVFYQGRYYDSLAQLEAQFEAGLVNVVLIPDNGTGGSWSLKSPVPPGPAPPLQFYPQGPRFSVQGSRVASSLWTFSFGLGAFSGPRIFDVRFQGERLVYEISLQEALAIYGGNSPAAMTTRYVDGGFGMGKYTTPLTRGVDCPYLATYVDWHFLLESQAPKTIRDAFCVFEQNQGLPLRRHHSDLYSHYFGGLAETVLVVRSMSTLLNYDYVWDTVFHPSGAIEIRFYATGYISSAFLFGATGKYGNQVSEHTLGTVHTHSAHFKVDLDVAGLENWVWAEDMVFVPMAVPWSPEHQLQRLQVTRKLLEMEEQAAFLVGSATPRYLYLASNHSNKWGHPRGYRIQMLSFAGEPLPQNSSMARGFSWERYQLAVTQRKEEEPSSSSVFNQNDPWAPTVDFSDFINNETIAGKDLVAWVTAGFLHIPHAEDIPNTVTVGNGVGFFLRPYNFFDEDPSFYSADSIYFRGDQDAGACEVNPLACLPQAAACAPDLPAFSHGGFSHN

pIC50 | Structure (SMILES)
7.00 to 7.70 | CC1(C)COC(CS(=O)(=O)c2ccc(OC/C(=C/F)CN)cc2)CO1 (centres unmarked) [compound 2, (E)-2-((4-(((5,5-dimethyl-1,4-dioxan-2-yl)methyl)sulfonyl)phenoxy)methyl)-3-fluoroprop-2-en-1-amine]
7.00 to 7.70 | NC/C(=C\F)COc1ccc(S(=O)(=O)CC2CCOCC2)c(F)c1 [compound 6, (E)-3-fluoro-2-((3-fluoro-4-(((tetrahydro-2H-pyran-4-yl)methyl)sulfonyl)phenoxy)methyl) prop-2-en-1-amine]
7.00 to 7.70 | NC/C(=C\F)COc1ccc(S(=O)(=O)CC2(O)CCOCC2)cc1 [compound 10, (E)-4-(((4-((2-(aminomethyl)-3-fluoroallyl)oxy)phenyl)sulfonyl)methyl)tetrahydro-2H-pyran-4-ol]
7.00 to 7.70 | COC1(CS(=O)(=O)c2ccc(OC/C(=C/F)CN)cc2)CCOCC1 [compound 11, (E)-3-fluoro-2-((4-(((4-methoxytetrahydro-2H-pyran-4-yl)methyl)sulfonyl)phenoxy)methyl) prop-2-en-1-amine]
7.00 to 7.70 | NC/C(=C\F)COc1ccc(S(=O)(=O)CC23CCC(C4(NC(=O)C5CC5)CC4)(CC2)CC3)cc1 [compound 16, (E)-N-(1-(4-(((4-((2-(aminomethyl)-3-fluoroallyl)oxy)phenyl)sulfonyl)methyl)bicyclo[2.2.2]octan-1-yl)cyclopropyl) cyclopropanecarboxamide]
7.00 to 7.70 | COCC(COC)CS(=O)(=O)c1ccc(OC/C(=C/F)CN)cc1 [compound 25, (E)-3-fluoro-2-((4-((3-methoxy-2-(methoxymethyl)propyl)sulfonyl)phenoxy)methyl)prop-2-en-1-amine]
7.00 to 7.70 | NC/C(=C\F)COc1ccc(S(=O)(=O)COC2CCOCC2)cc1 [compound 26, (E)-3-fluoro-2-((4-((((tetrahydro-2H-pyran-4-yl)oxy)methyl)sulfonyl)phenoxy)methyl)prop-2-en-1-amine]
7.00 to 7.70 | NC/C(=C\F)COc1ccc(S(=O)(=O)COC2CCN(C(=O)C3CCCC3)CC2)cc1 [compound 27, (E)-(4-(((4-((2-(aminomethyl)-3-fluoroallyl)oxy)phenyl)sulfonyl)methoxy)piperidin-1-yl)(cyclopentyl)methanone]
7.00 to 7.70 | COCCOCS(=O)(=O)c1ccc(OC/C(=C/F)CN)cc1 [compound 29, (E)-3-fluoro-2-((4-(((2-methoxyethoxy)methyl)sulfonyl)phenoxy)methyl)prop-2-en-1-amine]
7.00 to 7.70 | CC1(COCS(=O)(=O)c2ccc(OC/C(=C/F)CN)cc2)CCOCC1 [compound 31, (E)-3-fluoro-2-((4-((((4-methyltetrahydro-2H-pyran-4-yl)methoxy)methyl)sulfonyl)phenoxy)methyl)prop-2-en-1-amine]
7.00 to 7.70 | N#CC1(COCS(=O)(=O)c2ccc(OC/C(=C/F)CN)cc2)CCOCC1 [compound 32, (E)-4-((((4-((2-(aminomethyl)-3-fluoroallyl)oxy)phenyl)sulfonyl)methoxy)methyl)tetrahydro-2H-pyran-4-carbonitrile]
7.00 to 7.70 | CC(C)C(=O)N1CCC(C)(COCS(=O)(=O)c2ccc(OC/C(=C/F)CN)cc2)CC1 [compound 33, (E)-1-(4-((((4-((2-(aminomethyl)-3-fluoroallyl)oxy)phenyl)sulfonyl)methoxy)methyl)-4-methylpiperidin-1-yl)-2-methylpropan-1-one]
7.00 to 7.70 | CC1(COCS(=O)(=O)c2ccc(OC/C(=C/F)CN)cc2)CCN(C(=O)C(C)(C)C)CC1 [compound 34, (E)-1-(4-((((4-((2-(aminomethyl)-3-fluoroallyl)oxy)phenyl)sulfonyl)methoxy)methyl)-4-methylpiperidin-1-yl)-2,2-dimethylpropan-1-one]
7.00 to 7.70 | COCC(COC)OCS(=O)(=O)c1ccc(OC/C(=C/F)CN)cc1 [compound 36, (E)-2-((4-((((1,3-dimethoxypropan-2-yl)oxy)methyl)sulfonyl)phenoxy)methyl)-3-fluoroprop-2-en-1-amine]
7.00 to 7.70 | CC(C)(C)C(=O)N1CCC(CS(=O)(=O)c2ccc(OC/C(=C/F)CN)cc2)CC1 [compound 41, (E)-1-(4-(((4-((2-(aminomethyl)-3-fluoroallyl)oxy)phenyl)sulfonyl)methyl)piperidin-1-yl)-2,2-dimethylpropan-1-one]
7.00 to 7.70 | CC(C)C(=O)Nc1ccc(CS(=O)(=O)c2ccc(OC/C(=C/F)CN)cc2)cc1 [compound 45, (E)-N-(4-(((4-((2-(aminomethyl)-3-fluoroallyl)oxy)phenyl)sulfonyl)methyl)phenyl)isobutyramide]

pIC50 | Structure (SMILES)
7.00 to 7.70 | CC(C)C(=O)N1CC(CS(=O)(=O)c2ccc(OC/C(=C/F)CN)cc2)C1 [compound 52, (E)-1-(3-(((4-((2-(aminomethyl)-3-fluoroallyl)oxy)phenyl)sulfonyl)methyl)azetidin-1-yl)-2-methylpropan-1-one]
7.00 to 7.70 | CC(C)C(=O)N1CCC(C)(CS(=O)(=O)c2ccc(OC/C(=C/F)CN)cc2)CC1 [compound 53, (E)-1-(4-(((4-((2-(aminomethyl)-3-fluoroallyl)oxy)phenyl)sulfonyl)methyl)-4-methylpiperidin-1-yl)-2-methylpropan-1-one]
7.00 to 7.70 | NC/C(=C\F)COc1ccc(S(=O)(=O)CC2CCN(C(=O)C3CC3)CC2)c(Cl)c1 [compound 60, (E)-(4-(((4-((2-(aminomethyl)-3-fluoroallyl)oxy)-2-chlorophenyl)sulfonyl)methyl)piperidin-1-yl)(cyclopropyl)methanone]
7.00 to 7.70 | NC/C(=C\F)COc1ccc(S(=O)(=O)CC23CCC(C(=O)N4CCC(F)(F)CC4)(CC2)CC3)cc1 [compound 63, (E)-(4-(((4-((2-(aminomethyl)-3-fluoroallyl)oxy)phenyl)sulfonyl)methyl)bicyclo[2.2.2]octan-1-yl)(4,4-difluoropiperidin-1-yl)methanone]
7.00 to 7.70 | CN(C(=O)C1CC1)C12CCC(CS(=O)(=O)c3ccc(OC/C(=C/F)CN)cc3)(CC1)CC2 [compound 78, (E)-N-(4-(((4-((2-(aminomethyl)-3-fluoroallyl)oxy)phenyl)sulfonyl)methyl)bicyclo[2.2.2]octan-1-yl)-N-methylcyclopropanecarboxamide]
6.30 to 7.00 | CC(C)N(C)C(=O)C(C)(C)CS(=O)(=O)c1ccc(OC/C(=C/F)CN)cc1 [compound 95, (E)-3-((4-((2-(aminomethyl)-3-fluoroallyl)oxy)phenyl)sulfonyl)-N-isopropyl-N,2,2-trimethylpropanamide]
7.00 to 7.70 | CCN(CC(C)CS(=O)(=O)c1ccc(OC/C(=C/F)CN)cc1)C(=O)C(C)C (centres unmarked) [compound 97, (E)-N-(3-((4-((2-(aminomethyl)-3-fluoroallyl)oxy)phenyl)sulfonyl)-2-methylpropyl)-N-ethylisobutyramide]
7.00 to 7.70 | CC(C)n1ccc(CS(=O)(=O)c2ccc(OC/C(=C/F)CN)cc2)cc1=O [compound 101, (E)-4-(((4-((2-(aminomethyl)-3-fluoroallyl)oxy)phenyl)sulfonyl)methyl)-1-isopropylpyridin-2(1H)-one]
7.00 to 7.70 | NC/C(=C\F)COc1ccc(S(=O)(=O)Cc2cnc(N3CCCC3)nc2)cc1 [compound 103, (E)-3-fluoro-2-((4-(((2-(pyrrolidin-1-yl)pyrimidin-5-yl)methyl)sulfonyl)phenoxy)methyl) prop-2-en-1-amine]
7.00 to 7.70 | NC/C(=C\F)COc1ccc(S(=O)(=O)CC2(CN3CCCCC3=O)CC2)cc1 [compound 106, (E)-1-((1-(((4-((2-(aminomethyl)-3-fluoroallyl)oxy)phenyl)sulfonyl)methyl)cyclopropyl)methyl)piperidin-2-one]
7.00 to 7.70 | C[C@@H](CS(=O)(=O)c1ccc(OC/C(=C/F)CN)cc1)N1CCCCC1=O [compound 108, (S,E)-1-(1-((4-((2-(aminomethyl)-3-fluoroallyl)oxy)phenyl)sulfonyl)propan-2-yl)piperidin-2-one]
7.00 to 7.70 | CC(C)(CN1CCOCC1)CS(=O)(=O)c1ccc(OC/C(=C/F)CN)cc1 [compound 115, (E)-2-((4-((2,2-dimethyl-3-morpholinopropyl)sulfonyl)phenoxy)methyl)-3-fluoroprop-2-en-1-amine]
6.30 to 7.00 | NC/C(=C\F)COc1ccc(S(=O)(=O)CN2CCCC2=O)cc1 [compound 117, (E)-1-(((4-((2-(aminomethyl)-3-fluoroallyl)oxy)phenyl)sulfonyl)methyl)pyrrolidin-2-one]
7.00 to 7.70 | NC/C(=C\F)COc1ccc(S(=O)(=O)Cn2ccccc2=O)cc1 [compound 121, (E)-1-(((4-((2-(aminomethyl)-3-fluoroallyl)oxy)phenyl)sulfonyl)methyl)pyridin-2(1H)-one]
7.00 to 7.70 | CC(C)N1CCN(CS(=O)(=O)c2ccc(OC/C(=C/F)CN)cc2)C(=O)C1 [compound 135, (E)-1-(((4-((2-(aminomethyl)-3-fluoroallyl)oxy)phenyl)sulfonyl)methyl)-4-isopropylpiperazin-2-one]
7.00 to 7.70 | NC/C(=C\F)COc1ccc(S(=O)(=O)CC23CC(C(=O)NC4CCC4)(C2)C3)cc1 [compound 138, (E)-3-(((4-((2-(aminomethyl)-3-fluoroallyl)oxy)phenyl)sulfonyl)methyl)-N-cyclobutylbicyclo[1.1.1]pentane-1-carboxamide]
